This is an account of results in patent US20220220106A1, “QUINOLINE COMPOUNDS AND PHARMACEUTICAL COMPOSITIONS AND USES THEREOF” (Academy of Military Medical Sciences, priority 2019, published 2022).

The test system of data set [1] is Enterovirus 71 (EV71) H strain. In words: In vitro anti-EV71 activity (antiviral activity in RD cells, CellTiter-Glo). The conditions noted are these: Enterovirus A, 96 h; EV71 H strain, RD cells, 4 days, CellTiter-Glo; read-out: IC50. It is filed as cell-based. The procedure, abridged: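 RD cells infected with 100TCID50 EV71 in DMEM+2% FBS, with compound in 10-point three-fold dilutions, cultured 4 days at 37° C. Cell viability by CellTiter-Glo luminescence; inhibition rate relative to cell control fitted to S-curve for IC50. TD50 derived likewise; SI=TD50/IC50.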

Data set [2] in a line: Water solubility in saturated aqueous solution (HPLC, one-point method). It is filed as physicochemical. The conditions noted are these: for Water solubility: deionized water, 25° C. The method, then: By measuring the solubility of compound in a saturated aqueous solution, the water solubility of the compound was further investigated.
Preparation of Supersaturated Solution:
(1) About 1 mg of the compound to be tested was weighed and added to a 25 mL tube;
(2) 5 mL of deionized water was added, shaken well, placed in a vortex shaker and mixed for 30 seconds, then treated ultrasonically for 30 seconds;
(3) The tube was placed in a constant temperature water bath, and allowed to stand in a constant temperature water bath at 25° C. for 1 hour;
(4) The operation of (2) was repeated, and the standing at constant temperature of 25° C. was continued for 1 hour;
(5) The prepared supersaturated solution supernatant was taken out and placed in a centrifuge tube, centrifuged at 15000 rpm for 5 minutes, and the upper centrifugate was taken out for later use.
Liquid Chromatography Method:
(1) Chromatographic column: Agilent XDB Eclipse C18, 25 cm×4.6 mm×5 μm liquid chromatography column.
(2) Mobile phase: Phase A: water (0.1% trifluoroacetic acid); Phase B: acetonitrile.
(3) Flow rate: 1.0 mL/min.
(4) Sampling volume: 10 μl.
Preparation of standard solution: 1.0 mg of the sample to be tested was accurately weighed, added to a 10 mL volumetric flask, dissolved in methanol as solvent, metered to a constant volume of 10 mL, the concentration of solution was calculated, and it was used as a standard solution for later use.
By using the one-point method, the chromatographic peak area of the standard solution of the sample to be tested was determined, and then the peak area of the supersaturated compound was determined, and the solubility of the compound to be tested in water was calculated accordingly.

Usually IC50 stands for the concentration that inhibits the measured activity by half.

With `COc1ccc(-c2ccc3ncc4ccc(=O)n(-c5cccc(C(F)(F)F)c5)c4c3c2)cn1` [HTL-7-03, 9-[3-(6-methoxy)pyridyl]-2-oxo-1-[3-(trifluoromethyl)phenyl]-1,2-dihydrobenzo[h][1,6]naphthyridine], the half-inhibitory concentration (IC50) in data set [1] is 40 ± 10 nM. The compound further returned a Water solubility in data set [2] of 0.61 µg/mL.
Take `CN1CCN(c2ccc(-c3ccc4ncc5ccc(=O)n(-c6cccc(C(F)(F)F)c6)c5c4c3)cn2)CC1` [HTL-7-17, 9-{3-[6-(4-methylpiperazin-1-yl)pyridyl]}-2-oxo-1-[3-(trifluoromethyl)phenyl]-1,2-dihydrobenzo[h][1,6]naphthyridine]: the IC50 in data set [1] turned out to be 100 ± 30 nM. Moreover, in data set [2], the “water solubility, in words” value is reported as “relatively high water solubility” and the Water solubility amounted to 18.64 µg/mL.
